# In patent US20260262643A1, “HERBICIDAL BENZOXAZINES” (FMC CORPORATION, priority 2022, published 2026):
# What was measured:
# [1] = tested on: kochia; experiment: Test C preemergence; format: in vivo, Bassia scoparia; settings: 0 to 100 scale (0 no effect, 100 complete control); for Plant response rating, Kochia: Preemergence, 500 g ai/ha, visual rating after 10 days; for Kochia plant response rating: Test C, preemergence, 125 g ai/ha
# Procedure, shortened: (§1)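 Visual injury score, 0–100 (100 = complete control), taken 10 days after treatment relative to untreated controls. Pre: directed spray onto soil over sown seeds. Post: foliar spray at one- to two-leaf stage, 2–10 cm. Solvent/surfactant formulation; loam–sand soil; greenhouse.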
# [2] = tested on: green foxtail; experiment: Test C preemergence; format: in vivo, Setaria viridis; settings: 0 to 100 scale (0 no effect, 100 complete control); for Plant response rating, Foxtail, Green: Preemergence, 500 g ai/ha, visual rating after 10 days; for Foxtail, Green plant response rating: Test C, preemergence, 125 g ai/ha
# Procedure, shortened: as §1
# [3] = tested on: rice; experiment: Test D flooded paddy test; format: in vivo, Oryza sativa; settings: 250 g ai/ha, applied to paddy water, visual rating after 13 to 14 days, scale 0 to 100 (0 no effect, 100 complete control)
# Procedure, shortened: (§2)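 Plants grown to the 2-leaf stage; pots flooded to 3 cm above soil at treatment and held at that depth throughout. Test compounds applied directly to the paddy water. After 13 to 14 days in a greenhouse, response was rated visually versus controls on a 0 (no effect) to 100 (complete control) scale.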
# [4] = tested on: wheat; experiment: Test C preemergence; format: in vivo, Triticum aestivum; settings: 0 to 100 scale (0 no effect, 100 complete control); for Plant response rating, Wheat: Preemergence, 500 g ai/ha, visual rating after 10 days; for Wheat plant response rating: Test C, preemergence, 125 g ai/ha
# Procedure, shortened: as §1
# [5] = tested on: horseweed; experiment: Test C postemergence; format: in vivo, Erigeron canadensis; settings: 10 days
# Procedure, shortened: as §1
# [6] = tested on: green foxtail; experiment: Test C postemergence; format: in vivo, Setaria viridis; settings: 10 days
# Procedure, shortened: as §1
# [7] = tested on: sedge, umbrella; experiment: Test D flooded paddy test; format: in vivo, Cyperus difformis; settings: 250 g ai/ha, applied to paddy water, visual rating after 13 to 14 days, scale 0 to 100 (0 no effect, 100 complete control)
# Procedure, shortened: as §2
# [8] = tested on: ryegrass, Italian; experiment: Test C postemergence; format: in vivo, Lolium multiflorum; settings: 10 days
# Procedure, shortened: as §1
# [9] = tested on: ducksalad; experiment: Test D flooded paddy test; format: in vivo, Heteranthera limosa; settings: 250 g ai/ha, applied to paddy water, visual rating after 13 to 14 days, scale 0 to 100 (0 no effect, 100 complete control)
# Procedure, shortened: as §2
# [10] = tested on: soybean; experiment: Test C preemergence; format: in vivo, Glycine max; settings: 0 to 100 scale (0 no effect, 100 complete control); for Plant response rating, Soybean: Preemergence, 500 g ai/ha, visual rating after 10 days; for Soybean plant response rating: Test C, preemergence, 125 g ai/ha
# Procedure, shortened: as §1
# [11] = tested on: barnyardgrass; experiment: Test C postemergence; format: in vivo, Echinochloa crusgalli; settings: 10 days
# Procedure, shortened: as §1
# [12] = tested on: corn; experiment: Test C preemergence; format: in vivo, Zea mays; settings: 0 to 100 scale (0 no effect, 100 complete control); for Plant response rating, Corn: Preemergence, 500 g ai/ha, visual rating after 10 days; for Corn plant response rating: Test C, preemergence, 125 g ai/ha
# Procedure, shortened: as §1
# [13] = tested on: barnyardgrass; experiment: Test C preemergence; format: in vivo, Echinochloa crusgalli; settings: 0 to 100 scale (0 no effect, 100 complete control); for Plant response rating, Barnyardgrass: Preemergence, 500 g ai/ha, visual rating after 10 days; for Barnyardgrass plant response rating: Test C, preemergence, 125 g ai/ha
# Procedure, shortened: as §1
# [14] = tested on: oat, wild; experiment: Test C preemergence; format: in vivo, Avena fatua; settings: 0 to 100 scale (0 no effect, 100 complete control); for Plant response rating, Oat, Wild: Preemergence, 500 g ai/ha, visual rating after 10 days; for Oat, Wild plant response rating: Test C, preemergence, 125 g ai/ha
# Procedure, shortened: as §1
# [15] = tested on: pigweed, palmer; experiment: Test C postemergence; format: in vivo, Amaranthus palmeri; settings: 10 days
# Procedure, shortened: as §1
# [16] = tested on: blackgrass; experiment: Test C postemergence; format: in vivo, Alopecurus myosuroides; settings: 10 days
# Procedure, shortened: as §1
# [17] = tested on: ragweed; experiment: Test C preemergence; format: in vivo, Ambrosia artemisiifolia; settings: 0 to 100 scale (0 no effect, 100 complete control); for Plant response rating, Ragweed: Preemergence, 500 g ai/ha, visual rating after 10 days; for Ragweed plant response rating: Test C, preemergence, 125 g ai/ha
# Procedure, shortened: as §1
# [18] = tested on: soybean; experiment: Test C postemergence; format: in vivo, Glycine max; settings: 10 days
# Procedure, shortened: as §1
# [19] = tested on: barnyardgrass; experiment: Test D flooded paddy test; format: in vivo, Echinochloa crus-galli; settings: 250 g ai/ha, applied to paddy water, visual rating after 13 to 14 days, scale 0 to 100 (0 no effect, 100 complete control)
# Procedure, shortened: as §2
# [20] = tested on: ragweed; experiment: Test C postemergence; format: in vivo, Ambrosia artemisiifolia; settings: 10 days
# Procedure, shortened: as §1
# [21] = tested on: corn; experiment: Test C postemergence; format: in vivo, Zea mays; settings: 10 days
# Procedure, shortened: as §1
# [22] = tested on: wheat; experiment: Test C postemergence; format: in vivo, Triticum aestivum; settings: 10 days
# Procedure, shortened: as §1
# [23] = tested on: kochia; experiment: Test C postemergence; format: in vivo, Bassia scoparia; settings: 10 days
# Procedure, shortened: as §1
# [24] = tested on: pigweed, palmer; experiment: Test C preemergence; format: in vivo, Amaranthus palmeri; settings: 0 to 100 scale (0 no effect, 100 complete control); for Plant response rating, Pigweed, Palmer: Preemergence, 500 g ai/ha, visual rating after 10 days
# Procedure, shortened: as §1
# [25] = tested on: blackgrass; experiment: Test C preemergence; format: in vivo, Alopecurus myosuroides; settings: 0 to 100 scale (0 no effect, 100 complete control); for Plant response rating, Blackgrass: Preemergence, 500 g ai/ha, visual rating after 10 days; for Blackgrass plant response rating: Test C, preemergence, 125 g ai/ha
# Procedure, shortened: as §1
# [26] = tested on: ryegrass, Italian; experiment: Test C preemergence; format: in vivo, Lolium multiflorum; settings: 0 to 100 scale (0 no effect, 100 complete control); for Plant response rating, Ryegrass, Italian: Preemergence, 500 g ai/ha, visual rating after 10 days; for Ryegrass, Italian plant response rating: Test C, preemergence, 125 g ai/ha
# Procedure, shortened: as §1
# [27] = tested on: oat, wild; experiment: Test C postemergence; format: in vivo, Avena fatua; settings: 10 days
# Procedure, shortened: as §1
# [28] = 125 g ai/ha, postemergence, 0 to 100 scale, 0 no effect, 100 complete control
# [29] = Postemergence, 500 g ai/ha, visual 0 to 100 scale (0 no effect, 100 complete control)
compound,measurement,setting,value
Cc1cn(-c2cccc(C(=O)N3C[C@H](C)Oc4c(C)cccc43)c2)cn1 [Compound 232],"Plant response rating, Kochia",[1],0
same,Kochia plant response rating,[1],0
same,"Plant response rating, Foxtail, Green",[2],0
same,"Foxtail, Green plant response rating",[2],0
same,"Plant response rating, Rice (Flood)",[3],0
same,"Plant response rating, Wheat",[4],0
same,Wheat plant response rating,[4],0
same,"Plant response rating, Horseweed",[5]; [28],0
same,"Plant response rating, Horseweed",[5]; [29],0
same,"Plant response rating, Foxtail, Green",[6]; [28],0
same,"Plant response rating, Foxtail, Green",[6]; [29],30
same,"Plant response rating, Sedge, Umbrella (Flood)",[7],0
same,"Plant response rating, Ryegrass, Italian",[8]; [28],30
same,"Plant response rating, Ryegrass, Italian",[8]; [29],60
same,"Plant response rating, Ducksalad (Flood)",[9],0
same,"Plant response rating, Soybean",[10],0
same,Soybean plant response rating,[10],0
same,"Plant response rating, Barnyardgrass",[11]; [28],10
same,"Plant response rating, Barnyardgrass",[11]; [29],20
same,"Plant response rating, Corn",[12],0
same,Corn plant response rating,[12],0
same,"Plant response rating, Barnyardgrass",[13],0
same,Barnyardgrass plant response rating,[13],0
same,"Plant response rating, Oat, Wild",[14],0
same,"Oat, Wild plant response rating",[14],0
same,"Plant response rating, Pigweed, Palmer",[15]; [28],0
same,"Plant response rating, Pigweed, Palmer",[15]; [29],10
same,"Plant response rating, Blackgrass",[16]; [28],0
same,"Plant response rating, Blackgrass",[16]; [29],50
same,"Plant response rating, Ragweed",[17],0
same,Ragweed plant response rating,[17],0
same,"Plant response rating, Soybean",[18]; [28],100
same,"Plant response rating, Soybean",[18]; [29],100
same,"Plant response rating, Barnyardgrass (Flood)",[19],0
same,"Plant response rating, Ragweed",[20]; [28],0
same,"Plant response rating, Ragweed",[20]; [29],30
same,"Plant response rating, Corn",[21]; [28],0
same,"Plant response rating, Corn",[21]; [29],0
same,"Plant response rating, Wheat",[22]; [28],10
same,"Plant response rating, Wheat",[22]; [29],10
same,"Plant response rating, Kochia",[23]; [28],0
same,"Plant response rating, Kochia",[23]; [29],60
same,"Plant response rating, Pigweed, Palmer",[24],0
same,"Plant response rating, Blackgrass",[25],0
same,Blackgrass plant response rating,[25],0
same,"Plant response rating, Ryegrass, Italian",[26],20
same,"Ryegrass, Italian plant response rating",[26],20
same,"Plant response rating, Oat, Wild",[27]; [28],0
same,"Plant response rating, Oat, Wild",[27]; [29],0
"CC(C)c1ncn(-c2cc3c(c(C(=O)N4C[C@H](C)Oc5c(Cl)cccc54)c2)OCCO3)n1 [Compound 217, [(2S)-8-chloro-2-methyl-2,3-dihydro-1,4-benzoxazin-4-yl]-[7-(3-isopropyl-1,2,4-triazol-1-yl)-2,3-dihydro-1,4-benzodioxin-5-yl]methanone]","Plant response rating, Kochia",[1],100
same,Kochia plant response rating,[1],80
same,"Plant response rating, Foxtail, Green",[2],100
same,"Foxtail, Green plant response rating",[2],100
same,"Plant response rating, Rice (Flood)",[3],20
same,"Plant response rating, Wheat",[4],90
same,Wheat plant response rating,[4],30
same,"Plant response rating, Horseweed",[5]; [28],80
same,"Plant response rating, Horseweed",[5]; [29],100
same,"Plant response rating, Foxtail, Green",[6]; [28],90
same,"Plant response rating, Foxtail, Green",[6]; [29],90
same,"Plant response rating, Sedge, Umbrella (Flood)",[7],98
same,"Plant response rating, Ryegrass, Italian",[8]; [28],70
same,"Plant response rating, Ryegrass, Italian",[8]; [29],90
same,"Plant response rating, Ducksalad (Flood)",[9],85
same,"Plant response rating, Soybean",[10],100
same,Soybean plant response rating,[10],70
same,"Plant response rating, Barnyardgrass",[11]; [28],40
same,"Plant response rating, Barnyardgrass",[11]; [29],80
same,"Plant response rating, Corn",[12],40
same,Corn plant response rating,[12],30
same,"Plant response rating, Barnyardgrass",[13],100
same,Barnyardgrass plant response rating,[13],90
same,"Plant response rating, Oat, Wild",[14],90
same,"Oat, Wild plant response rating",[14],90
same,"Plant response rating, Pigweed, Palmer",[15]; [28],100
same,"Plant response rating, Pigweed, Palmer",[15]; [29],100
same,pest or weed control at 125 g/ha,"[16]; Alopecurus myosuroides, post-emergence, 240 h, 125 g ai/ha, postemergence, 0 to 100 scale (0 no effect, 100 complete control), read-out: Plant response rating, Blackgrass",90%
same,pest or weed control at 500 g/ha,"[16]; Alopecurus myosuroides, post-emergence, 240 h, Postemergence, 500 g ai/ha, visual 0 to 100 scale (0 no effect, 100 complete control), read-out: Plant response rating, Blackgrass",100%
same,"Plant response rating, Ragweed",[17],100
same,Ragweed plant response rating,[17],70
same,"Plant response rating, Soybean",[18]; [28],100
same,"Plant response rating, Soybean",[18]; [29],100
same,"Plant response rating, Barnyardgrass (Flood)",[19],50
same,"Plant response rating, Ragweed",[20]; [28],90
same,"Plant response rating, Ragweed",[20]; [29],100
same,"Corn plant response rating (crop injury, 0 = no effect, 100 = complete kill) at 125 g/ha","[21]; Zea mays, post-emergence, 240 h, 125 g ai/ha, postemergence, 0 to 100 scale (0 no effect, 100 complete control)",70%
same,"Corn plant response rating (crop injury, 0 = no effect, 100 = complete kill) at 500 g/ha","[21]; Zea mays, post-emergence, 240 h, Postemergence, 500 g ai/ha, visual 0 to 100 scale (0 no effect, 100 complete control)",70%
same,"Plant response rating, Wheat",[22]; [28],50
same,"Plant response rating, Wheat",[22]; [29],50
same,"Plant response rating, Kochia",[23]; [28],80
same,"Plant response rating, Kochia",[23]; [29],90
same,"Plant response rating, Pigweed, Palmer",[24],100
same,"Pigweed, Palmer plant response rating","[24]; Test C, preemergence, 125 g ai/ha",100
same,"Plant response rating, Blackgrass",[25],90
same,Blackgrass plant response rating,[25],60
same,"Plant response rating, Ryegrass, Italian",[26],100
same,"Ryegrass, Italian plant response rating",[26],90
same,"Plant response rating, Oat, Wild",[27]; [28],20
same,"Plant response rating, Oat, Wild",[27]; [29],40
